Experimental data from patent US20220274954A1, “SUBSTITUTED N-PHENYL-N-AMINOUARCILS AND SALTS THEREOF AND USE THEREOF AS HERBICIDAL AGENTS” (Bayer Aktiengesellschaft, priority 2019, published 2022).

Columns and labels:
Type in all cases: in vivo
Zea mays [1] = assay: Pre-emergence crop plant compatibility; conditions: application rate 20 g/ha
Description: (§1) Seeds of monocotyledonous and dicotyledonous weed plants and crop plants were placed in plastic or organic planting pots and covered with soil. The compounds of the invention, formulated in the form of wettable powders (WP) or as emulsion concentrates (EC), were then applied to the surface of the covering soil as aqueous suspension or emulsion with addition of 0.5% additive at a water application rate equivalent to […] (converted). After the treatment, the pots were placed in a greenhouse and kept under good growth conditions for the test plants. After about 3 weeks, the effect of the preparations was scored visually in comparison with untreated controls as percentages. For example, 100% activity=the plants have died, 0% activity=like control plants.
(§2) Here, the observed effects on selected crop plants are stated in comparison to the untreated controls (values in %).

Triticum aestivum = assay: Pre-emergence crop plant compatibility; conditions: application rate 20 g/ha
Description: as §1, §2

Brassica napus [2] = assay: Pre-emergence crop plant compatibility; conditions: application rate 20 g/ha
Description: as §1, §2

Polygonum convolvulus [3] = assay: Pre-emergence herbicidal action; conditions: scored after about 3 weeks
Description: as §1
(§3) Tables B1 to B11 below show the effects of selected compounds of the general formula (I) according to Tables I.1 to I.34 on various harmful plants and at an application rate corresponding to 80 g/ha and less, which were obtained by the experimental procedure mentioned above.

Viola tricolor [4] = assay: Pre-emergence herbicidal action; conditions: scored after about 3 weeks
Description: as §1, §3

Veronica persica [5] = assay: Pre-emergence herbicidal action; conditions: scored after about 3 weeks
Description: as §1, §3

Echinochloa crus-galli [6] = assay: Pre-emergence herbicidal action; conditions: application rate 80 g/ha, scored after about 3 weeks
Description: as §1, §3

Digitaria sanguinalis [7] = assay: Pre-emergence herbicidal action; conditions: scored after about 3 weeks
Description: as §1, §3

Abutilon theophrasti [8] = assay: Pre-emergence herbicidal action; conditions: application rate 80 g/ha, scored after about 3 weeks
Description: as §1, §3

Lolium rigidum = assay: Pre-emergence herbicidal action; conditions: application rate 80 g/ha, scored after about 3 weeks
Description: as §1, §3

Amaranthus retroflexus [9] = assay: Pre-emergence herbicidal action; conditions: scored after about 3 weeks
Description: as §1, §3

Alopecurus myosuroides = assay: Pre-emergence herbicidal action; conditions: application rate 80 g/ha
Description: as §1, §3

Setaria viridis [10] = assay: Pre-emergence herbicidal action; conditions: scored after about 3 weeks
Description: as §1, §3

Matricaria inodora [11] = assay: Pre-emergence herbicidal action; conditions: scored after about 3 weeks
Description: as §1, §3

Pharbitis purpurea [12] = assay: Pre-emergence herbicidal action; conditions: application rate 80 g/ha, scored after about 3 weeks
Description: as §1, §3

Stellaria media = assay: Post-emergence herbicidal action; conditions: application rate 20 g/ha
In short: (§4)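 Plants grown from seed in sandy loam in the greenhouse were sprayed at the one-leaf stage, 2 to 3 weeks after sowing, with WP or EC formulations in water plus 0.5% additive at 20 g/ha or less. Activity was rated visually after about 3 weeks against untreated controls (100% = plants died, 0% = like control).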

Polygonum convolvulus [13] = assay: Post-emergence herbicidal action; conditions: Fallopia convolvulus, 504 h, application rate 20 g/ha, read-out: Polygonum convolvulus (efficacy in %)
In short: as §4

Viola tricolor [14] = assay: Post-emergence herbicidal action; conditions: Viola tricolor, 504 h, read-out: Viola tricolor (efficacy in %)
In short: as §4

Veronica persica [15] = assay: Post-emergence herbicidal action; conditions: Veronica persica, 504 h, read-out: Veronica persica (efficacy in %)
In short: as §4

Echinochloa crus-galli [16] = assay: Post-emergence herbicidal action; conditions: Echinochloa crus-galli, 504 h, read-out: Echinochloa crus-galli (efficacy in %)
In short: as §4

Digitaria sanguinalis [17] = assay: Post-emergence herbicidal action; conditions: 504 h, application rate 20 g/ha, read-out: Digitaria sanguinalis (efficacy in %)
In short: as §4

Abutilon theophrasti [18] = assay: Post-emergence herbicidal action; conditions: Abutilon theophrasti, 504 h, read-out: Abutilon theophrasti (efficacy in %)
In short: as §4

Amaranthus retroflexus [19] = assay: Post-emergence herbicidal action; conditions: Amaranthus retroflexus, 504 h, read-out: Amaranthus retroflexus (efficacy in %)
In short: as §4

Setaria viridis [20] = assay: Post-emergence herbicidal action; conditions: 504 h, read-out: Setaria viridis (efficacy in %)
In short: as §4

Matricaria inodora [21] = assay: Post-emergence herbicidal action; conditions: Tripleurospermum inodorum, 504 h, read-out: Matricaria inodora (efficacy in %)
In short: as §4

Pharbitis purpurea [22] = assay: Post-emergence herbicidal action; conditions: Ipomoea purpurea, 504 h, application rate 5 g/ha, read-out: Pharbitis purpurea (efficacy in %)
In short: as §4

Zea mays [23] = assay: Post-emergence crop plant compatibility; conditions: application rate 1.25 g/ha
In short: (§5)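 Greenhouse plants in sandy loam were sprayed at the one-leaf stage, 2–3 weeks after sowing, with WP or EC formulations in water plus 0.5% additive at […]. Damage was rated visually after about 3 weeks as % versus untreated controls, where 100% means dead plants and 0% means like controls.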

Glycine max = assay: Post-emergence crop plant compatibility
In short: as §5

Brassica napus [24] = assay: Post-emergence crop plant compatibility; conditions: application rate 1.25 g/ha
In short: as §5

Oryza sativa = assay: Post-emergence crop plant compatibility
In short: as §5

`CCOC(=O)COc1ncccc1Sc1cc(-n2c(=O)cc(C(F)(F)F)n(N)c2=O)c(F)cc1Cl` [I.1-442, Ethyl {[3-({5-[3-amino-2,6-dioxo-4-(trifluoromethyl)-3,6-dihydropyrimidin-1(2H)-yl]-2-chloro-4-fluorophenyl}sulfanyl)pyridin-2-yl]oxy}acetate] was tested, and the “Zea mays (efficacy in %)” value (Zea mays [1]) was 0%, the “Triticum aestivum (efficacy in %)” value (Triticum aestivum) was 10% and the “Brassica napus (efficacy in %)” value (Brassica napus [2]) was 0%. For the same compound, the “Polygonum convolvulus (efficacy in %)” value (Polygonum convolvulus [3]; application rate 20 g/ha) was 90%, the “Polygonum convolvulus (efficacy in %)” value (Polygonum convolvulus [3]; application rate 80 g/ha) was 100% and the “Viola tricolor (efficacy in %)” value (Viola tricolor [4]; application rate 20 g/ha) was 100%. For the same compound, the “Viola tricolor (efficacy in %)” value (Viola tricolor [4]; application rate 80 g/ha) was 100%, the “Veronica persica (efficacy in %)” value (Veronica persica [5]; application rate 20 g/ha) was 80% and the “Veronica persica (efficacy in %)” value (Veronica persica [5]; application rate 80 g/ha) was 100%. The “Echinochloa crus-galli (efficacy in %)” value (Echinochloa crus-galli [6]) was 100%, the “Digitaria sanguinalis (efficacy in %)” value (Digitaria sanguinalis [7]; application rate 20 g/ha) was 100% and the “Digitaria sanguinalis (efficacy in %)” value (Digitaria sanguinalis [7]; application rate 80 g/ha) was 100%. The “Abutilon theophrasti (efficacy in %)” value (Abutilon theophrasti [8]) was 100%, the “Lolium rigidum (efficacy in %)” value (Lolium rigidum) was 100% and the “Amaranthus retroflexus (efficacy in %)” value (Amaranthus retroflexus [9]; application rate 20 g/ha) was 100%. For the same compound, the “Amaranthus retroflexus (efficacy in %)” value (Amaranthus retroflexus [9]; application rate 80 g/ha) was 100%, the “Alopecurus myosuroides (efficacy in %)” value (Alopecurus myosuroides) was 90% and the “Setaria viridis (efficacy in %)” value (Setaria viridis [10]; application rate 20 g/ha) was 90%. For the same compound, the “Setaria viridis (efficacy in %)” value (Setaria viridis [10]; application rate 80 g/ha) was 100%, the “Matricaria inodora (efficacy in %)” value (Matricaria inodora [11]; application rate 20 g/ha) was 100% and the “Matricaria inodora (efficacy in %)” value (Matricaria inodora [11]; application rate 80 g/ha) was 100%. The “Pharbitis purpurea (efficacy in %)” value (Pharbitis purpurea [12]) was 100%, the “Stellaria media (efficacy in %)” value (Stellaria media) was 100% and the pest or weed control at 20 g/ha (Polygonum convolvulus [13]) was 100%. The pest or weed control at 5 g/ha (Viola tricolor [14]; application rate 5 g/ha) was 100%, the pest or weed control at 20 g/ha (Viola tricolor [14]; application rate 20 g/ha) was 100% and the pest or weed control at 5 g/ha (Veronica persica [15]; application rate 5 g/ha) was 100%. The pest or weed control at 20 g/ha (Veronica persica [15]; application rate 20 g/ha) was 100%, the pest or weed control at 5 g/ha (Echinochloa crus-galli [16]; application rate 5 g/ha) was 100% and the pest or weed control at 20 g/ha (Echinochloa crus-galli [16]; application rate 20 g/ha) was 100%. For the same compound, the pest or weed control at 20 g/ha (Digitaria sanguinalis [17]) was 100%, the pest or weed control at 5 g/ha (Abutilon theophrasti [18]; application rate 5 g/ha) was 100% and the pest or weed control at 20 g/ha (Abutilon theophrasti [18]; application rate 20 g/ha) was 100%. The pest or weed control at 5 g/ha (Amaranthus retroflexus [19]; application rate 5 g/ha) was 100%, the pest or weed control at 20 g/ha (Amaranthus retroflexus [19]; application rate 20 g/ha) was 100% and the pest or weed control at 5 g/ha (Setaria viridis [20]; application rate 5 g/ha) was 100%. The pest or weed control at 20 g/ha (Setaria viridis [20]; application rate 20 g/ha) was 100%, the pest or weed control at 5 g/ha (Matricaria inodora [21]; application rate 5 g/ha) was 90% and the pest or weed control at 20 g/ha (Matricaria inodora [21]; application rate 20 g/ha) was 100%. The pest or weed control at 5 g/ha (Pharbitis purpurea [22]) was 100%, the “Zea mays (efficacy in %)” value (Zea mays [23]) was 20% and the “Glycine max (efficacy in %)” value (Glycine max; application rate 1.25 g/ha) was 10%. The “Glycine max (efficacy in %)” value (Glycine max; application rate 5 g/ha) was 20%, the “Brassica napus (efficacy in %)” value (Brassica napus [24]) was 10% and the “Oryza sativa (efficacy in %)” value (Oryza sativa; application rate 1.25 g/ha) was 10%. The “Oryza sativa (efficacy in %)” value (Oryza sativa; application rate 5 g/ha) was 20%.
